Holding throughout (type): cell-based
In test [1] the test system is S. pneumoniae SV1 SP-3. Kind of test: in vitro antibacterial activity (MIC), S. pneumoniae. Conditions: Streptococcus pneumoniae, SV1SP3. An excerpt: (§1) The in vitro antibacterial activity of the compounds of the present invention may be assessed by following procedures recommended in (1) National Committee for Clinical Laboratory Standards (January 2003), Methods for dilution antimicrobial tests for bacteria that grow aerobically, Approved Standard (6th ed), M7-A6, NCCLS, Wayne, Pa.; (2) National Committee for Clinical Laboratory Standards (March 2001), Methods for antimicrobial susceptibility testing of anaerobic bacteria, Approved Standard (5th ed), M11-A4, NCCLS, Wayne, Pa.; (3) National Committee for Clinical Laboratory Standards (Jan. 2003), MIC testing supplemental tables, M100-S13 (for use with M7-A6), NCCLS, Wayne, Pa.; and (4) Murray P R, Baron E J, Jorgensen J H, et al. Manual of Clinical Microbiology (8th ed) Washington, D.C.: American Society for Microbiology Press, 2003. The MIC value is the lowest concentration of drug which prevented macroscopically visible growth under the conditions of the test.

Test [2] concerns S. aureus UC-76 SA-1. Nature of the test: in vitro antibacterial activity (MIC), S. aureus. The note with it: Staphylococcus aureus, UC76, S. aureus UC-76 SA-1.
Text: as §1

The subject of test [3] is E. faecalis MGH-2 EF 1-1. Kind of test: in vitro antibacterial activity (MIC), E. faecalis. Conditions: Enterococcus faecalis, MGH2EF11.
Text: as §1

≈ marks a conversion by molar mass, not a printed value.

What is called MIC90 is an inhibitory concentration at the 90% level, which refers to growth in some studies and to a panel of isolates in others. Lower therefore signals greater potency. Regarding `CCC(=O)NC[C@H]1CN(c2cc(F)c3c(c2)CC(=O)N3CCF)C(=O)O1` [Example 12, (S)—N-{3-[7-fluoro-1-(2-fluoro-ethyl)-2-oxo-2,3-dihydro-1H-indol-5-yl]-2-oxo-oxazolidin-5-ylmethyl}-propionamide], the MIC90 in test [1] came out at 4 µg/mL (≈ 10.9 µM); in test [2] it was 8 µg/mL (≈ 21.8 µM); in test [3], 4 µg/mL (≈ 10.9 µM).

Take `CCC(=O)NC[C@H]1CN(c2cc(F)c3c(c2)CC(=O)N3CC)C(=O)O1` [Example 8, (S)—N-[3-(1-ethyl-7-fluoro-2-oxo-2,3-dihydro-1H-indol-5-yl)-2-oxo-oxazolidin-5-ylmethyl]-propionamide]: the MIC90 turned out to be 4 µg/mL (≈ 11.4 µM) in test [1], 4 µg/mL (≈ 11.4 µM) in test [2] and 2 µg/mL (≈ 5.72 µM) in test [3].
